Test results from ChEMBL document CHEMBL1201862, “PubChem BioAssay data set” (2004).
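The compound was tested at five concentrations on cells cultured in 96-well plates, with a 48-hour exposure period. The concentration for 50% growth inhibition is given as GI50.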 Active and inactive are the calls of the source. No stated cut-off is given here; in the data, active = GI50 up to about 1.1 µM and inactive = higher.

Columns and labels:
Test in all cases: NCI-60 cell line screen, 48 h
SN12C = system: SN12C
UACC-257 = system: UACC-257
T47D = system: T47D
HCT-116 = system: HCT-116
ACHN = system: ACHN
SF-295 = system: SF-295
CCRF-CEM = system: CCRF-CEM
NCI-H460 = system: NCI-H460
Hs-578T = system: Hs-578T
SK-MEL-28 = system: SK-MEL-28
COLO 205 = system: COLO 205
HCC 2998 = system: HCC 2998
UO-31 = system: UO-31
NCI-H226 = system: NCI-H226
A549 = system: A549
HCT-15 = system: HCT-15
U-251 = system: U-251
HL-60 = system: HL-60
HOP-92 = system: HOP-92
RPMI-8226 = system: RPMI-8226

SMILES | GI50 (SN12C) | GI50 (UACC-257) | GI50 (T47D) | GI50 (HCT-116) | GI50 (ACHN) | GI50 (SF-295) | GI50 (CCRF-CEM) | GI50 (NCI-H460) | GI50 (Hs-578T) | GI50 (SK-MEL-28) | GI50 (COLO 205) | GI50 (HCC 2998) | GI50 (UO-31) | GI50 (NCI-H226) | GI50 (A549) | GI50 (HCT-15) [µM] | GI50 (U-251) | GI50 (HL-60) | GI50 (HOP-92) | GI50 (RPMI-8226)
Oc1cc(-n2cccn2)c(O)cc1-n1cccn1 | 19.3 µM (inactive) | 32.1 µM (inactive) | 22.3 µM (inactive) | 26.2 µM (inactive) | 22.4 µM (inactive) | 37.8 µM (inactive) | 7.11 µM (inactive) | > 100 µM (inactive) | > 100 µM (inactive) | 40.8 µM (inactive) | 18.1 µM (inactive) | > 100 µM (inactive) | 23.8 µM (inactive) | 62.5 µM (inactive) | > 86.9 µM (inactive) | 28.8 | 52.4 µM (inactive) | 6.43 µM (inactive) | 21 µM (inactive) | 15.2 µM (inactive)
Nc1ccc(S(=O)(=O)c2ccc(NC(=O)c3cccnc3)cc2)cc1 | > 100 µM (inactive) | 53 µM (inactive) | 36.8 µM (inactive) | > 100 µM (inactive) | > 100 µM (inactive) | > 100 µM (inactive) |  | > 100 µM (inactive) | 80.9 µM (inactive) | > 100 µM (inactive) | > 100 µM (inactive) | > 100 µM (inactive) | > 100 µM (inactive) | > 100 µM (inactive) | > 100 µM (inactive) | > 100 | > 100 µM (inactive) | 45.1 µM (inactive) | > 100 µM (inactive) | 36.6 µM (inactive)
O=C(CN1CCCCC1)Nc1ccc2sc3ccccc3c(=O)c2n1 | 12.5 µM (inactive) | 18.2 µM (inactive) | 27.2 µM (inactive) | 9.23 µM (inactive) | 14.2 µM (inactive) | 15 µM (inactive) | 5.92 µM (inactive) | 13.2 µM (inactive) | 18.8 µM (inactive) | 17.3 µM (inactive) | 10.8 µM (inactive) | 14.8 µM (inactive) | 9.95 µM (inactive) |  | 15 µM (inactive) | 12.2 | 16.6 µM (inactive) | 17.1 µM (inactive) | 15.1 µM (inactive) | 13.1 µM (inactive)
C1=Cc2cccc3occ(c23)C=C1 | > 100 µM (inactive) | > 100 µM (inactive) | 68.7 µM (inactive) | 46.3 µM (inactive) | 58.1 µM (inactive) | > 100 µM (inactive) | 20.5 µM (inactive) | 41.3 µM (inactive) | 22.1 µM (inactive) | 47.2 µM (inactive) | 29 µM (inactive) | 29 µM (inactive) | 41.8 µM (inactive) | 24.1 µM (inactive) | > 100 µM (inactive) | 48 | 36.3 µM (inactive) | 20.4 µM (inactive) | 91.8 µM (inactive) | 
CC[C@@]1(O)C[C@H](OC2CC(N(C)C)C(O)C(C)O2)c2c(O)c3c(c(O)c2[C@H]1OC1CC(N(C)C)C(O)C(C)O1)C(=O)c1cccc(O)c1C3=O (some centres undefined) | 0.054 µM (active) | 0.146 µM (active) | 0.06 µM (active) | 0.0247 µM (active) |  | 0.04 µM (active) | 0.0687 µM (active) | 0.018 µM (active) | 0.0577 µM (active) | 0.0373 µM (active) | 0.0321 µM (active) | 0.0284 µM (active) | 0.0275 µM (active) | 0.0219 µM (active) | 0.0306 µM (active) | 0.0585 | 0.0264 µM (active) | 0.0869 µM (active) | 0.071 µM (active) | 0.0409 µM (active)
COc1cc(/C=C2\C[C@H]3[C@@H]4CC=C5C[C@@H](O)CC[C@]5(C)[C@H]4CC[C@]3(C)[C@H]2O)cc(OC)c1OC | 38.3 µM (inactive) | 14.8 µM (inactive) | 3.48 µM (inactive) | 8.05 µM (inactive) | 6.27 µM (inactive) | 4.84 µM (inactive) |  | 12 µM (inactive) | 19.9 µM (inactive) | 25.2 µM (inactive) | 7.31 µM (inactive) | 17.3 µM (inactive) | 13 µM (inactive) | 11 µM (inactive) | 9.79 µM (inactive) | 7.05 | 11 µM (inactive) | 4.91 µM (inactive) | 12.7 µM (inactive) | 4.92 µM (inactive)
CSC(=S)N/N=C(\C)c1cccc(C)n1 | 1.28 µM (inactive) | 0.92 µM (active) | 2.46 µM (inactive) | 0.183 µM (active) | 0.265 µM (active) | 1.49 µM (inactive) | 0.0124 µM (active) | 0.456 µM (active) | 6.14 µM (inactive) | 1.46 µM (inactive) | 0.0513 µM (active) | 3.17 µM (inactive) | 1.21 µM (inactive) | 0.824 µM (active) | 0.762 µM (active) | 0.375 | 0.776 µM (active) | 0.0764 µM (active) | 1.1 µM (active) | 
CC(=O)OCC1OC(O[C@@H]2C[C@H]3C(C)(C)[C@@H](OC(C)=O)CC[C@]3(C)[C@H]3CC[C@]45C[C@]4(CC[C@H]5[C@@H](C)C[C@@H](O)[C@H](O)C(C)(C)F)[C@@]32C)C(O)C(O)C1O (some centres undefined) | 1.73 µM (inactive) | 7.57 µM (inactive) | > 100 µM (inactive) | 1.56 µM (inactive) | 37.5 µM (inactive) | 24.7 µM (inactive) | 1.21 µM (inactive) | 16.9 µM (inactive) | 1.84 µM (inactive) | 1.63 µM (inactive) | 1.78 µM (inactive) | 25.9 µM (inactive) |  |  | 1.62 µM (inactive) | 2.48 | 18.2 µM (inactive) | 1.09 µM (active) | 1.93 µM (inactive) | 1.79 µM (inactive)
N#CC1=C(N)OC(c2cccc([N+](=O)[O-])c2)C1(C#N)C#N (centres undefined) | 33.2 µM (inactive) | 17 µM (inactive) | 17.4 µM (inactive) | 15.2 µM (inactive) | 18.2 µM (inactive) | 26.5 µM (inactive) |  |  | 84.3 µM (inactive) |  | 17 µM (inactive) | 20.9 µM (inactive) | 17.9 µM (inactive) | 30.8 µM (inactive) | 34.8 µM (inactive) | 18.7 | 39.9 µM (inactive) | 11.9 µM (inactive) | 16.8 µM (inactive) | 18.3 µM (inactive)
CC(C)[Si](OC1=C(C(=O)N(C)c2cccc(Cl)c2)CCCC1)(C(C)C)C(C)C |  | 12.5 µM (inactive) | 2.91 µM (inactive) |  | 16.2 µM (inactive) | 11 µM (inactive) | 29.7 µM (inactive) | 14.1 µM (inactive) | 12.5 µM (inactive) | 13.6 µM (inactive) | 15.1 µM (inactive) | 17 µM (inactive) | 14.5 µM (inactive) | 15.8 µM (inactive) | 4.41 µM (inactive) | 14 | 13.8 µM (inactive) | 5.61 µM (inactive) | 12.4 µM (inactive) | 8.73 µM (inactive)
COc1c(Cl)nc2ccccc2c1N=[N+]=[N-] | 92 µM (inactive) | > 100 µM (inactive) | 85.7 µM (inactive) | 52.7 µM (inactive) | 43.4 µM (inactive) | > 100 µM (inactive) | 88.9 µM (inactive) | > 100 µM (inactive) | 28.3 µM (inactive) | > 100 µM (inactive) | > 100 µM (inactive) | > 100 µM (inactive) | 17.3 µM (inactive) |  | > 100 µM (inactive) |  | > 100 µM (inactive) | 53.3 µM (inactive) | 22.2 µM (inactive) | 95.7 µM (inactive)
COc1ccc(C(=O)N2CCc3c([nH]c4ccccc34)C2C(=O)O)o1 (centres undefined) | > 10 µM (inactive) | > 10 µM (inactive) | > 10 µM (inactive) | > 10 µM (inactive) | > 10 µM (inactive) | > 10 µM (inactive) | > 10 µM (inactive) |  | > 10 µM (inactive) | > 10 µM (inactive) | > 10 µM (inactive) | > 10 µM (inactive) |  |  | > 10 µM (inactive) | > 10 | > 10 µM (inactive) | > 10 µM (inactive) | > 10 µM (inactive) | > 10 µM (inactive)
O=C1CC(c2ccsc2)n2cccc21 (centres undefined) | > 100 µM (inactive) | > 100 µM (inactive) | > 100 µM (inactive) | > 100 µM (inactive) | > 100 µM (inactive) | > 100 µM (inactive) | > 100 µM (inactive) |  | > 100 µM (inactive) | > 100 µM (inactive) | > 100 µM (inactive) | > 100 µM (inactive) | > 100 µM (inactive) | > 100 µM (inactive) | > 100 µM (inactive) | > 100 | > 100 µM (inactive) | > 100 µM (inactive) | > 100 µM (inactive) | > 100 µM (inactive)
C=C(C)CCC1CC=[N+]([O-])OC1C(C)(C)C (centres undefined) | 49.4 µM (inactive) | 58.6 µM (inactive) | 20.7 µM (inactive) | 21.8 µM (inactive) | 68.9 µM (inactive) | > 100 µM (inactive) | 11.4 µM (inactive) | 51.8 µM (inactive) | 36.6 µM (inactive) |  | 40.1 µM (inactive) | > 100 µM (inactive) | 30.3 µM (inactive) | 15.5 µM (inactive) | 20.9 µM (inactive) | 26.1 | 46.9 µM (inactive) | 2.65 µM (inactive) | > 100 µM (inactive) | 41.3 µM (inactive)
CC1(C)N=c2c(ncn2Cc2ccccc2)=C(C(N)=O)N1 | > 100 µM (inactive) | > 100 µM (inactive) | > 100 µM (inactive) | > 100 µM (inactive) | 94.4 µM (inactive) | > 100 µM (inactive) | > 100 µM (inactive) | > 100 µM (inactive) | > 100 µM (inactive) | > 100 µM (inactive) | > 100 µM (inactive) | > 100 µM (inactive) |  | > 100 µM (inactive) | > 100 µM (inactive) | > 100 | > 100 µM (inactive) | > 100 µM (inactive) | > 100 µM (inactive) | > 100 µM (inactive)
